pIC50: −log10 of the molar value. Where a name gives a salt, the structure may show the parent alone.
target: T1, rh beta tryptase (Homo sapiens, UniProt Q15661); test: tryptase inhibition test (cleavage of N-p-tosyl-Gly-Pro-Lys-para-nitroaniline, p-nitroaniline measured at 405 nm); type: biochemical; conditions: Tris HCl buffer pH 7.4 with calcium and heparin; substrate 0.6 mM; 5 minutes' pre-incubation, 5 minutes incubation at 37° C.
T1 construct: purchased Promega
Procedure: The compounds according to the invention are characterised by their tryptase-inhibiting activity. This ability to inhibit tryptase was investigated using the test described as follows. The measurement is carried out in Tris HCl buffer (100 mM), which additionally contains calcium (5 mM) and heparin ([…]), at pH 7.4. The standard used is rh beta tryptase which may be obtained commercially from Promega, for example. The substrate used is N-p-tosyl-Gly-Pro-Lys-para-nitroaniline in a concentration of 0.6 mM. The substrate is digested with tryptase to form p-nitroaniline which can be measured at 405 nm. Usually, an incubation period of 5 minutes and an incubation temperature of 37° C. are chosen. The enzyme activity used is 0.91 U/ml. The measurements are carried out in an Autoanalyser (Cobas Bio) made by Hofmann LaRoche. The potential inhibitory substances are used in concentrations of 10 μM in the screening, the inhibition of the tryptase being given in percent. The IC50 is determined at over 70% inhibition (concentration at which 50% of the enzyme activity is inhibited). After 5 minutes' pre-incubation of the potential inhibitory substances, the substrate is added to start the reaction, the formation of p-nitroaniline being taken as a measurement of the enzyme activity after 5 minutes, after testing the linearity.

T1 sequence (Q15661 31-275): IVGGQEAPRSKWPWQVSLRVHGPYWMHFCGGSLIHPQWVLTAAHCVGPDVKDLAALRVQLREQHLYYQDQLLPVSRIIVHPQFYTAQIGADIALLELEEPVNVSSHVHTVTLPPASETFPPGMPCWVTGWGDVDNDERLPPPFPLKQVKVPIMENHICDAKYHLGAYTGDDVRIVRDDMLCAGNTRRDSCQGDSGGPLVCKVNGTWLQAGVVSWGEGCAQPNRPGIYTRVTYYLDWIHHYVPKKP

SMILES | pIC50
Cn1c(CCc2ccc(C(=N)N)cc2)nc2cc(N(Cc3cccc4ccccc34)C(=O)CNCc3ccc(N4CCCC4)cc3)ccc21 [Example 82, N-{2-[2-(4-Amidinophenyl)-ethyl]-1-methyl-benzimidazol-5-yl}-N-( - naphthylmethyl)-[2-(N-4-pyrrolidin-1-ylbenzylamino)-acetamide]-dihydrochloride] | 8.31
CN(C)CCCC(=O)N(Cc1cccc2ccccc12)c1ccc2c(c1)nc(CCc1ccc(C(=N)N)cc1)n2C [Example 29, N-{2-[2-(4-Amidinophenyl)-ethyl]-1-methyl-benzimidazol-5-yl}-N-( - naphthylmethyl)-[4-dimethylamino-butanoic acid amide]-dihydrochloride] | 7.42
Cn1c(CCc2ccc(C(=N)N)cc2)nc2cc(N(Cc3ccc4ccccc4c3)C(=O)CCCc3ccc(N)cc3)ccc21 [Example 55, N-{2-[2-(4-Amidinophenyl)-ethyl]-1-methyl-benzimidazol-5-yl}-N-(β-naphthylmethyl)-[4-(4-aminophenyl)-butyroamide]-dihydrochloride] | 6.76
Cn1c(CCc2ccc(C(=N)N)cc2)nc2cc(N(Cc3cccc4ccccc34)C(=O)COCc3ccc([N+](=O)[O-])cc3)ccc21 [Example 75, N-{2-[2-(4-Amidinophenyl)-ethyl]-1-methyl-benzimidazol-5-yl}-N-(-- naphthylmethyl)-[2-(4-nitrobenzyloxy)-acetamide]-hydrochloride] | 7.76
COc1ccc(CNCC(=O)N(Cc2ccc3ccccc3c2)c2ccc3c(c2)nc(CCc2ccc(C(=N)N)cc2)n3C)cc1 [Example 57, N-{2-[2-(4-Amidinophenyl)-ethyl]-1-methyl-benzimidazol-5-yl}-N-(β-naphthylmethyl)-[4-methoxybenzylamino-acetamide]-dihydrochloride] | 7.59
Cn1c(CCc2ccc(C(=N)N)cc2)nc2cc(N(Cc3cccc4ccccc34)C(=O)CCCCCN)ccc21 [Example 31, N-{2-[2-(4-Amidinophenyl)-ethyl]-1-methyl-benzimidazol-5-yl}-N-( - naphthylmethyl)-[6-amino-hexanoic acid amide]-dihydrochloride] | 7.52
Cn1c(CCc2ccc(C(=N)N)cc2)nc2cc(N(Cc3cccc4ccccc34)C(=O)CCCCN)ccc21 [Example 24, N-{2-[2-(4-Amidinophenyl)-ethyl]-1-methyl-benzimidazol-5-yl}-N-( - naphthylmethyl)-[5-amino-pentanoic acid amide]-dihydrochloride] | 7.54
CN(C(=O)CCC1CCN(Cc2ccccc2)CC1)c1ccc2c(c1)nc(CCc1ccc(C(=N)N)cc1)n2C [Example 2, N-{2-[2-(4-Amidinophenyl)-ethyl]-1-methyl-benzimidazol-5-yl}-N-methyl-[3-(N-benzyl-piperid-4-yl)-propionamide]-dihydrochloride] | 6.72
CN(C)CCCCC(=O)N(Cc1cccc2ccccc12)c1ccc2c(c1)nc(CCc1ccc(C(=N)N)cc1)n2C [Example 25, N-{2-[2-(4-Amidinophenyl)-ethyl]-1-methyl-benzimidazol-5-yl}-N-( - naphthylmethyl)-[5-dimethylamino-pentanoic acid amide]-dihydrochloride] | 7.48
Cn1c(CCc2ccc(C(=N)N)cc2)nc2cc(N(Cc3ccc4ccccc4c3)C(=O)CCc3ccc(C(=N)N)cc3)ccc21 [Example 9, N-{2-[2-(4-Amidinophenyl)-ethyl]-1- -methy-benzimidazol-5-yl}-N-β-naphthylmethyl-[3-(4-amidinophenyl)-propionamide]-dihydrochloride] | 7.62
Cn1c(CCc2ccc(C(=N)N)cc2)nc2cc(N(Cc3cccc4ccccc34)C(=O)CCCc3ccc([N+](=O)[O-])cc3)ccc21 [Example 42, N-{2-[2-(4-Amidinophenyl)-ethyl]-1-methyl-benzimidazol-5-yl}-N-(α-naphthylmethyl)-[4-(4-nitrophenyl)-butyroamide]-hydrochloride] | 7.96
Cn1c(CCc2ccc(C(=N)N)cc2)nc2cc(N(Cc3cccc4ccccc34)C(=O)CNCc3ccccc3N)ccc21 [Example 51, N-{2-[2-(4-Amidinophenyl)-ethyl]-1-methyl-benzimidazol-5-yl}-N-( - naphthylmethyl)-[2-(2-aminobenzylamino)-acetamide]-trihydrochloride] | 7.60
COc1ccc(CNCC(=O)N(Cc2cccc3ccccc23)c2ccc3c(c2)nc(CCc2ccc(C(=N)N)cc2)n3C)cc1 [Example 43, N-{2-[2-(4-Amidinophenyl)-ethyl]-1-methyl-benzimidazol-5-yl}-N-(- naphthylmethyl)-[2-(4-methoxybenzylamino)-acetamide]-dihydrochloride] | 8.00
Cn1c(CCc2ccc(C(=N)N)cc2)nc2cc(N(Cc3cccc4ccccc34)C(=O)C=Cc3ccccn3)ccc21 [Example 67, N-{2-[2-(4-Amidinophenyl)-ethyl]-1-methyl-benzimidazol-5-yl}-N-( - naphthylmethyl)-[3-(pyridin-2-yl)-acrylamide]-hydrochloride] | 7.41
CN(C)CCCC(=O)N(Cc1ccccc1)c1ccc2c(c1)nc(CCc1ccc(C(=N)N)cc1)n2C [Example 37, N-{2-[2-(4-Amidinophenyl)-ethyl]-1-methyl-benzimidazol-5-yl}-N-benzyl-[4-dimethyl-amino-butanoic acid amide]-dihydrochloride] | 7.12
Cn1c(CCc2ccc(C(=N)N)cc2)nc2cc(N(Cc3ccc4ccccc4c3)C(=O)CCC3CCN(Cc4ccccc4)CC3)ccc21 [Example 50] | 7.14
CCN(CC)c1ccc(CNCC(=O)N(Cc2cccc3ccccc23)c2ccc3c(c2)nc(CCc2ccc(C(=N)N)cc2)n3C)cc1 [Example 54, N-{2-[2-(4-Amidinophenyl)-ethyl]-1-methyl-benzimidazol-5-yl}-N-( - naphthylmethyl)-[2-(4-diethylaminobenzylamino)-acetamide]-dihydrochloride] | 8.07

The next lines start with the values.

pIC50 | SMILES
7.15 | Cn1c(CCc2ccc(C(=N)N)cc2)nc2cc(N(Cc3ccccc3)C(=O)CCCN)ccc21 [Example 36, N-{2-[2-(4-Amidinophenyl)-ethyl]-1-methyl-benzimidazol-5-yl}-N-benzyl-[4-amino-butanoic acid amide]-dihydrochloride]
7.59 | Cn1c(CCc2ccc(C(=N)N)cc2)nc2cc(N(Cc3ccccc3)C(=O)CCc3cccc(C(=N)N)c3)ccc21 [Example 33, N-{2-[2-(4-Amidinophenyl)-ethyl]-1-methyl-benzimidazol-5-yl}-N-benzyl-[3-(3-amidinophenyl)-propionamide]-dihydrochloride]
7.24 | Cn1c(CCc2ccc(C(=N)N)cc2)nc2cc(N(Cc3ccccc3)C(=O)CCCCN)ccc21 [Example 32, N-{2-[2-(4-Amidinophenyl)-ethyl]-1-methyl-benzimidazol-5-yl}-N-benzyl-[5-amino-pentanoic acid amide]-dihydrochloride]
7.59 | Cn1c(CCc2ccc(C(=N)N)cc2)nc2cc(N(Cc3cccc4ccccc34)C(=O)CCCCNC(=N)N)ccc21 [Example 27, N-{2-[2-(4-Amidinophenyl)-ethyl]-1-methyl-benzimidazol-5-yl}-N-(- naphthylmethyl)-[5-guanidino-pentanoic acid amide]-dihydrochloride]
7.88 | Cn1c(CCc2ccc(C(=N)N)cc2)nc2cc(N(Cc3ccc(N)cc3)C(=O)CNCc3ccc(N)cc3)ccc21 [Example 73, N-{2-[2-(4-Amidinophenyl)-ethyl]-1-methyl-benzimidazol-5-yl}-N-(4-aminobenzyl)-[2-(4-aminobenzylamino)-acetamide]-dihydrochloride]
7.24 | Cn1c(CCc2ccc(C(=N)N)cc2)nc2cc(N(Cc3ccncc3)C(=O)CNCc3ccc(N)cc3)ccc21 [Example 74, N-{2-[2-(4-Amidinophenyl)-ethyl]-1-methyl-benzimidazol-5-yl}-N-(-pyridin-4-ylmethyl)-[2-(4-aminobenzylamino)-acetamide]-dihydrochloride]

test system: not given; test: not given; conditions: not given

melting point [°C] | SMILES
> 220 | CC(C)CN(C(=O)CCc1ccc(C(=N)N)cc1)c1ccc2c(c1)nc(CCc1ccc(C(=N)N)cc1)n2C (as salt: hydrochloride) [Example 5, N-{2-[2-(4-Amidinophenyl)-ethyl]-1-methyl-benzimidazol-5-yl}-N-isobutyl-[3-(4-amidinophenyl)-propionamide]-dihydrochloride]
> 260 | Cn1c(CCc2ccc(C(=N)N)cc2)nc2cc(NC(=O)C(N)Cc3ccc(C(=N)N)cc3)ccc21 (stereo not shown) (as salt: hydrochloride) [Example 4, N-{2-[2-(4-Amidinophenyl)-ethyl]-1-methyl-benzimidazol-5-yl}-[2-amino-3-(p-amidinophenyl)-propionic Acid Amide]-trihydrochloride]

Source: patent publication US6407130B1, “Carboxamide-substituted benzimidazoles having tryptase-inhibiting activity” (Boehringer Ingelheim Pharma KG, priority 1999, dated 2002)
